{"source": "patent US6852696B2", "about": "“Inhibitors of glycosaminoglycans” (The University of Texas System, priority 1999, dated 2005)", "key": {"B16-F10 melanoma cells [1]": {"tested_on": "B16-F10 melanoma cells", "assay": "In vitro growth of B16-F10 melanoma cells (3H-thymidine uptake)", "type": "cell-based, mouse", "conditions": "3H-thymidine uptake at 24 hr", "procedure": "(§1) FIGS. 4A-C. Impact of Pep-1 on lung metastasis of melanoma. (FIG. 4A) B16-F10 melanoma cells were suspended (4×10^5 cells/ml) in PBS containing Pep-1 monomer (2 or 3 mg/ml) (circles) or 2% DMSO alone (triangles). C57BL/6 mice received i.v. injection of these cell suspensions (500 μl/animal) and were examined for survival. Data shown are the cumulative survival curves from four independent experiments (n=37 for Pep-1 and n=20 for PBS control). […] (FIG. 4B) B16-F10 melanoma cells (1×10^5 cells/animal) were s.c. injected into the back of C57BL/6 mice. Pep-1 or RP (40 μg/injection) was injected locally into the tumor inoculation sites 0. 3. and 6 days after tumor injection. Data shown are the means+/−s.e.m. (n=10) of tumor sizes and tumor weights measured 10 days after tumor inoculation. (FIG. 4C) B16-F10 melanoma cells (2×10^5 cells/well) were cultured in the presence of the indicated concentrations of Pep-1 (closed circles) or PR (open circles). Data shown are the means+/−s.e.m.(n=3) of ^3H-thymidine uptake at 24 hr."}, "XS52 DC": {"tested_on": "XS52 DC", "assay": "Cytokine secretion by XS52 DC stimulated with HA fragments (ELISA)", "type": "cell-based", "conditions": "500 μg/ml; HA fragments 50 μg/ml", "procedure": "FIGS. 5A-C. Impact of Pep-1 on HA degradation products. (FIG. 5A) 96 well plates were coated with biotinylated-HA (0.1 μg/ml) and pretreated with 500 μg/ml of Pep-1 (open circles), RP (closed circles), or PBS alone (triangles) for 3 hours. These plates were then incubated for 30 min in the presence of HAase (from bovine testis). After extensive wash, the amounts of remaining biotinylated HA on the plates were determined by addition of streptavidin-alkaline phosphatase followed by p-nitrophenyl phosphate substrate. The % HA digestion was calculated from the optical densities. The data shown are the means+/−s.e.m.from triplicate samples analyzed with a hyperbolic model. (FIG. 5B) The impact of Pep-1 on HA digestion and on cell adhesion was examined in parallel using the HA-coated plates prepared simultaneously. Pep-1, RP, or PBS alone was added to the HA-coated plates as above and their effects on HAase-mediated HA degradation and on the adhesion of ^35S-labeled BW5147 thymoma cells were compared. The data shown are the means+/−s.e.m.(n=3) of 50% inhibition doses of HAase (left) and % cell adhesion (right). […] (FIG. 5C) Low molecular weight HA fragments were prepared by sonication of HMW HA followed by overnight digestion with HAase at 37° C. […] Results are expressed as the means+/−s.e.m.from triplicate samples. […]"}, "Langerhans cells (LC) [2]": {"tested_on": "Langerhans cells (LC)", "assay": "Hapten (DNFB)-triggered LC emigration from the epidermis", "type": "in vivo, BALB/c mice", "conditions": "two local injections before DNFB", "procedure": "FIG. 3. Impact of multimeric Pep-1 derivatives on hapten-induced LC migration. BALB/c mice received two local injections of the indicated Pep-1 derivatives in the right ear (closed circles) and the indicated RP derivatives in the left ear 24 and 3 hours before topical application of 0.5% DNFB on both ears. All the peptides were administered at the identical dose in terms of the molarity ([…]) of the 16-mer Pep-1 peptide sequence, i.e., 40 μg/injection/ear for monomeric Pep-1 and RP, […] for dimeric Pep-1 and RP, or 160 μg/injection/ear for PEG-conjugated tetrameric Pep-1 and RP. Ear skin samples were harvested at the indicated time points after DNFB painting and examined for surface densities of IA^+ LC. Data shown are the means+/−s.e.m.(n=3) of % LC emigration as calculated by dividing from the formula: [(LC number before DNFB application−LC number after DNFB application)/LC number before DNFB application]×100. Asterisks indicate statistically significant differences between the Pep-1 and the RP panels (**p<0.01 by two-tailed Student's t-test).\nPep-1 and its dimeric and tetrameric derivatives were compared for their in vivo activities to prevent hapten-triggered LC emigration from the epidermis."}, "HA [3]": {"tested_on": "HA", "conditions": "co-pending application 60/126,475; cited from earlier work"}, "Langerhans cells (LC) [4]": {"tested_on": "Langerhans cells (LC)", "conditions": "co-pending application 60/126,475; cited from earlier work"}, "B16-F10 melanoma cells [5]": {"tested_on": "B16-F10 melanoma cells", "assay": "Local growth of s.c. inoculated B16-F10 melanoma", "type": "in vivo, C57BL/6 mice", "conditions": "40 μg/injection locally, days 0, 3, 6; measured day 10", "procedure": "as §1"}, "HA [6]": {"tested_on": "HA", "assay": "Adhesion of 35S-labeled BW5147 thymoma cells to HA-coated plates", "type": "cell-based", "conditions": "500 μg/ml pretreatment", "procedure": "FIGS. 1A-B. (FIG. 1A) ^35S-labeled BW5147 thymoma cells were incubated on HA-coated plates (0.1 μg/ml) that had been pretreated with the indicated peptides (500 μg/ml). Data shown are the means+/−S.D. of % binding from quadruplicate samples. (FIG. 1B) FITC-conjugated HA (0.3 μg/ml) was preincubation with the indicated peptide (500 μg/ml) and examined for binding to BW5147 thymoma cells. Data shown are the binding of FITC-conjugated HA in the presence of the indicated peptides (closed histograms) as compared to the background autofluorescence levels (open histograms).\nFIGS. 5A-C. Impact of Pep-1 on HA degradation products. […] After extensive wash, the amounts of remaining biotinylated HA on the plates were determined by addition of streptavidin-alkaline phosphatase followed by p-nitrophenyl phosphate substrate. The % HA digestion was calculated from the optical densities. The data shown are the means+/−s.e.m.from triplicate samples analyzed with a hyperbolic model. […] Results are expressed as the means+/−s.e.m.from triplicate samples.\nTo test the impact of Pep-1 on HA degradation, the present inventors developed a 96 well-based assay in which biotinylated HA was immobilized onto the plates and treated with HAase. The amounts of HA that remained attached to the wells was then determined by addition of streptavidin-conjugated alkaline phosphatase (FIG. 5A)."}, "B16-F10 melanoma cells [7]": {"tested_on": "B16-F10 melanoma cells", "assay": "Experimentally induced lung metastasis of i.v. infused B16-F10 melanoma cells", "type": "in vivo, C57BL/6 mice", "conditions": "simultaneous i.v. injection with B16-F10 cells", "procedure": "as §1\nIn the model, melanoma cells and Pep-1 (or random peptide control or PBS alone) were injected together intravenously into syngeneic C57BL/6 mice and lung metastasis was examined macroscopically and by following-up the survival of mice. […] The inventors will also examine the prophylactic and therapeutic potentials of multimeric Pep-1 formulations and other chemically modified Pep-1 derivatives using this animal model of melanoma metastasis."}}, "note": "“Also recorded” adds a separate entry of the source.", "data": [{"sequence": "GAHWQFNALTVR [Pep-1]", "values": [{"measurement": "effect on in vitro growth of B16-F10 melanoma cells", "setting": "B16-F10 melanoma cells [1]", "value": "no apparent effects"}, {"measurement": "inhibition of IL-6 secretion triggered by HA fragments", "setting": "XS52 DC", "value": "inhibited the secretion of both cytokines almost completely"}, {"measurement": "inhibition of TNFα secretion triggered by HA fragments", "setting": "XS52 DC", "value": "inhibited the secretion of both cytokines almost completely"}, {"measurement": "inhibition of LC emigration", "setting": "Langerhans cells (LC) [2]; 24 hr after DNFB application", "value": "inhibited LC emigration almost completely"}, {"measurement": "inhibition of LC emigration", "setting": "Langerhans cells (LC) [2]; 48 hr after DNFB application", "value": "kinetics comparable to those observed in the control group receiving random peptide (RP) injections"}, {"measurement": "inhibition of LC emigration", "setting": "Langerhans cells (LC) [2]; 72 hr after DNFB application", "value": "kinetics comparable to those observed in the control group receiving random peptide (RP) injections"}, {"measurement": "binding to HA", "setting": "HA [3]", "value": "specific binding to soluble, immobilized, and cell-associated forms of HA"}, {"measurement": "inhibition of sensitization phase / hapten-triggered LC migration", "setting": "Langerhans cells (LC) [4]", "value": "blocking hapten-triggered migration of Langerhans cells"}, {"measurement": "effect on local growth in animals following s.c. inoculation", "setting": "B16-F10 melanoma cells [5]", "value": "no apparent effects"}, {"measurement": "inhibition of BW5147 cell adhesion to HA substrate", "setting": "HA [6]", "value": "blocked BW5147 cell adhesion; also recorded: significant (p<0.01 by ANOVA) inhibition of cell adhesion"}, {"measurement": "survival of recipient animals", "setting": "B16-F10 melanoma cells [7]", "value": "prolonged the survival of recipient animals significantly"}, {"measurement": "survival of recipient animals", "setting": "B16-F10 melanoma cells [7]; listed as Pep-1 monomer", "value": "Statistically significant difference (p<0.01 by the log-rank test)"}, {"measurement": "extent of lung metastasis", "setting": "B16-F10 melanoma cells [7]; vs RP control", "value": "reduced the extent of lung metastasis significantly"}]}]}
